From the NIST ThermoML archive (doi:10.1021/je0501639)

Key:
[1] = xn = mol fraction of the nth substance listed; settings: 100.8 kPa, Liquid
[2] = refractive index (Na D-line) (dimensionless); xn = mol fraction of the nth substance listed; settings: 100.8 kPa, Liquid, Standard Abbe refractometry

CC(C)CC(C)(C)C [2,2,4-trimethylpentane] + CCO
Settings | mass density, 298.15 K [kg/m3] | mass density, 308.15 K [kg/m3] | mass density, 318.15 K [kg/m3] | refractive index, 298.15 K | refractive index, 308.15 K | refractive index, 318.15 K | viscosity, 298.15 K [mPa·s] | viscosity, 308.15 K [mPa·s] | viscosity, 318.15 K [mPa·s]
[1], x2 = 0 | 687.89 | 679.55 | 671.1 | – | – | – | 0.474 | 0.425 | 0.38
[1], x2 = 0.05 | 688.94 | 680.44 | 671.89 | – | – | – | 0.472 | 0.421 | 0.376
[1], x2 = 0.1 | 690.43 | 681.85 | 673.2 | – | – | – | 0.47 | 0.419 | 0.377
[1], x2 = 0.15 | 692.16 | 683.55 | 674.81 | – | – | – | 0.476 | 0.423 | 0.378
[1], x2 = 0.2 | 694.08 | 685.46 | 676.67 | – | – | – | 0.485 | 0.428 | 0.381
[1], x2 = 0.25 | 696.22 | 687.59 | 678.74 | – | – | – | 0.494 | 0.435 | 0.387
[1], x2 = 0.3 | 698.58 | 689.91 | 681.05 | – | – | – | 0.506 | 0.443 | 0.392
[1], x2 = 0.35 | 701.19 | 692.48 | 683.6 | – | – | – | 0.52 | 0.453 | 0.401
[1], x2 = 0.4 | 704.04 | 695.33 | 686.41 | – | – | – | 0.538 | 0.469 | 0.413
[1], x2 = 0.45 | 707.19 | 698.47 | 689.53 | – | – | – | 0.558 | 0.487 | 0.426
[1], x2 = 0.5 | 710.69 | 701.95 | 693 | – | – | – | 0.583 | 0.507 | 0.443
[1], x2 = 0.55 | 714.59 | 705.81 | 696.87 | – | – | – | 0.611 | 0.53 | 0.461
[1], x2 = 0.6 | 718.95 | 710.14 | 701.18 | – | – | – | 0.642 | 0.555 | 0.483
[1], x2 = 0.65 | 723.82 | 714.99 | 706 | – | – | – | 0.675 | 0.583 | 0.505
[1], x2 = 0.7 | 729.34 | 720.46 | 711.43 | – | – | – | 0.71 | 0.614 | 0.528
[1], x2 = 0.75 | 735.56 | 726.64 | 717.6 | – | – | – | 0.75 | 0.647 | 0.557
[1], x2 = 0.8 | 742.67 | 733.71 | 724.66 | – | – | – | 0.797 | 0.685 | 0.589
[1], x2 = 0.85 | 750.87 | 741.88 | 732.81 | – | – | – | 0.853 | 0.731 | 0.626
[1], x2 = 0.9 | 760.47 | 751.45 | 742.33 | – | – | – | 0.916 | 0.784 | 0.668
[1], x2 = 0.95 | 771.78 | 762.83 | 753.76 | – | – | – | 0.989 | 0.843 | 0.712
[2], x2 = 0 | – | – | – | 1.38898 | 1.38398 | 1.37898 | – | – | –
[2], x2 = 0.05 | – | – | – | 1.38825 | 1.38325 | 1.37815 | – | – | –
[2], x2 = 0.1 | – | – | – | 1.38749 | 1.38247 | 1.37738 | – | – | –
[2], x2 = 0.15 | – | – | – | 1.38668 | 1.38169 | 1.37662 | – | – | –
[2], x2 = 0.2 | – | – | – | 1.38586 | 1.38087 | 1.37584 | – | – | –
[2], x2 = 0.25 | – | – | – | 1.38499 | 1.38002 | 1.37503 | – | – | –
[2], x2 = 0.3 | – | – | – | 1.38408 | 1.37913 | 1.37417 | – | – | –
[2], x2 = 0.35 | – | – | – | 1.38311 | 1.37819 | 1.37326 | – | – | –
[2], x2 = 0.4 | – | – | – | 1.38208 | 1.37719 | 1.37229 | – | – | –
[2], x2 = 0.45 | – | – | – | 1.38098 | 1.37612 | 1.37125 | – | – | –
[2], x2 = 0.5 | – | – | – | 1.3798 | 1.37497 | 1.37013 | – | – | –
[2], x2 = 0.55 | – | – | – | 1.37853 | 1.37373 | 1.36892 | – | – | –
[2], x2 = 0.6 | – | – | – | 1.37716 | 1.37239 | 1.36762 | – | – | –
[2], x2 = 0.65 | – | – | – | 1.37567 | 1.37093 | 1.36621 | – | – | –
[2], x2 = 0.7 | – | – | – | 1.37403 | 1.36933 | 1.36466 | – | – | –
[2], x2 = 0.75 | – | – | – | 1.37223 | 1.36757 | 1.36295 | – | – | –
[2], x2 = 0.8 | – | – | – | 1.37023 | 1.36562 | 1.36106 | – | – | –
[2], x2 = 0.85 | – | – | – | 1.36799 | 1.36345 | 1.35896 | – | – | –
[2], x2 = 0.9 | – | – | – | 1.36547 | 1.36102 | 1.3566 | – | – | –
[2], x2 = 0.95 | – | – | – | 1.36261 | 1.35826 | 1.35396 | – | – | –
